A word on the IC50: it is the concentration that gives 50% inhibition. The Papp A→B is how fast a substance crosses the layer from the apical side. A lower Papp A→B goes with slow passage. Usually Papp B→A stands for how fast a substance crosses the layer from the basolateral side.

Data set [1] deals with T1, recombinant human IDO1 enzyme (Homo sapiens, UniProt P14902).
T1 construct: purchased NTRC (Netherlands Translational Research Center) NTRC-hIDO-10K
Nature of the data set: Test of hIDO1 for enzymatic activity in vitro (NFK Green fluorescence). The format is biochemical. Here is the method: 1. Test of hIDO1 for Enzymatic Activity In Vitro
1.1 Purpose of Experiment:
Changes in production of NFK, an IDO1 enzymatic metabolite were detected with NFK Green™ fluorescent molecules. With an IC50 value of a compound as an index, an inhibitory effect of the compound on recombinant human IDO1 enzyme was evaluated.
The compound was diluted with dimethyl sulfoxide (DMSO) to 1 mM, with 10 gradients, each 3-fold dilution, in duplicate. 48 μL of 50 mM phosphate buffer, having pH of 6.5, was transferred by the Bravo automatic liquid processing platform to the compound plate. Then 2 μL of an already diluted compound/DMSO solution was added. After even mixing, 10 μL of the resultant mixture was transferred to the enzymatic reaction plate.
IDO1 enzyme was diluted to 20 nM in a reaction buffer (50 mM phosphate buffer with pH of 6.5, 0.1% of Tween-20, 2% of glycerol, 20 mM ascorbic acid, 20 μg/ml catalase, and 20 μM methylene blue), 20 μL of the diluted IDO1 enzyme was transferred to the enzymatic reaction plate, and incubated at 23° C. for 30 minutes. 10 μL of 400 μM L-type tryptophan substrate was added to start reaction. The incubation lasted at 23° C. for 90 minutes. 10 μL of NFK Green™ fluorescent dye was added. The resultant mixture was sealed with the plate sealing film. After incubation at 37° C. for 4 hours, an Envision multi-functional plate reader was used for reading (Ex 400 nm/Em 510 nm).
A reference well to which the IDO1 enzyme was added but no compound was added was set to have an inhibition rate of 0%, and a reference well to which no IDO1 enzyme was added was set to have an inhibition rate of 100%. Data was analyzed with XLFit 5 to calculate an IC50 value of the compound.

For data set [2], the target named is T2, IDO1 enzyme in Hela cells (Homo sapiens, UniProt P14902).
T2 construct: endogenous in cells; host or cells: Hela cells, induced with recombinant human interferon-γ
T2 sequence (P14902 whole entry): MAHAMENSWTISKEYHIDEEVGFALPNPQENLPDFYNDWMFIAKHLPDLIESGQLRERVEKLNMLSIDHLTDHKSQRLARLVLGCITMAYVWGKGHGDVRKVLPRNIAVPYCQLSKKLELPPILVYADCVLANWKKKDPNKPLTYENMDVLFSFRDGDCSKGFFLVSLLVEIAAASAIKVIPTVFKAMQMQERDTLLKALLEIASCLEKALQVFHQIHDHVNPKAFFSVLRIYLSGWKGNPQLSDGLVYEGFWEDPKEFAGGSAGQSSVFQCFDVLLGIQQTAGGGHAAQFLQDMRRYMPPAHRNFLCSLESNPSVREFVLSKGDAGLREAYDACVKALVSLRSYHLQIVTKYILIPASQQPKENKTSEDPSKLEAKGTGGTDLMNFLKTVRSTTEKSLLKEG
Nature of the data set: Test of hIDO1 for cytological activity (Hela cell kynurenine by LCMS, interferon-γ induced). Particulars: interferon-γ 100 ng/ml, 20 hours. It is filed as cell-based. The protocol:
2. Test of hIDO1 for Cytological Activity
Changes in Hela cell kynurenine were detected by an LCMS method. With an IC50 value of a compound as an index, an inhibitory effect of the compound on IDO1 enzyme was evaluated.
The culture medium, trypsin, and DPBS were preheated in water bath at 37° C. The culture medium was removed by sucking from cell culture, followed by cleaning the cell culture with 10 mL of DPBS; the preheated trypsin was added to the culture flask, which was revolved to make the culture flask covered by trypsin uniformly, and placed into an incubator at 37° C. with 5% CO2 for digestion for 1-2 minutes; 10-15 mL of the culture medium was used to suspend cells each T150, followed by centrifugation at 800 rpm for 5 minutes. 10 mL of the culture medium was used to resuspend the cells. 1 mL of the cell resuspension was pipetted, and counted with Vi-cell; the Hela cells were diluted to 5×10^5/mL with the culture medium, 80 μL of the diluted Hela cells were added to the 96-well cell plate, and incubated in the an incubator at 37° C. with 5% CO2 for 5-6 hours.
The compound was diluted with DMSO to 1 mM, with 9 gradients, each 3-fold dilution, in duplicate. 5 μL of the already diluted compound DMSO solution was added to the compound plate containing 95 μL of the culture medium. After even mixing, 10 μL of the mixture was transferred to the cell plate.
10 μL of recombinant human interferon-γ was added to result in a final concentration of 100 ng/ml, to induce expression of IDO1. Incubation was carried out in the 5% CO2 incubator at 37° C. for 20 hours. 4 μL of 5% (w/v) trichloroacetic acid was added, followed by even mixing and incubation at 50° C. for 30 minutes. After centrifugation at 2400 rpm for 10 minutes, 40 μL of a supernatant was added to a 96-well V-bottom plate, followed by addition of a precipitant. Centrifugation was carried out at 4000 rpm for 10 minutes after even mixing. 100 μL of the supernatant was transferred to a new 96-well V-bottom plate. A content of kynurenine was detected through LCMS.
A reference well to which the interferon-γ was added but no compound was added was set to have an inhibition rate of 0%, and a reference well to which no Hela cell was added was set to have an inhibition rate of 100%. Data was analyzed with XLFit 5 to calculate an IC50 value of the compound.

Data set [3] is described as follows: Test for permeability across MDR1. The format is in vitro ADME. Particulars: dog, MDCK-MDR1. Here is the method: Test for Permeability Across MDR1
A sample for test was dissolved in dimethyl sulfoxide (DMSO) or other suitable solvents, to be prepared into 10 mM stock solution. A suitable internal standard (IS) was dissolved in acetonitrile (ACN) or other organic solvents as a stop solution. Specific information would be described in a research report.
Fenoterol, propranolol, and digoxin acted as low-permeability control, high-permeability control, and P-gp substrate in the present research. The stock solutions of these compounds were prepared with DMSO, stocked at 2-8° C., and valid for use within 3 months.
In the present project, a Hank's balanced salt buffer containing 10 mM HEPES was used as a transport buffer.
MDR1-MDCK II cells were cultivated using α-MEM culture media (α-Minimum Essential Media), with a culture condition of 37±1° C., 5% CO2, and saturated relative humidity. Afterwards, the cells were inoculated into a BD Transwell-96-well plate (BD Gentest), with an inoculation density of 2.3×10^5 cells/cm^2, then the cells were placed in a carbon dioxide incubator to be incubated for 4-7 days, and then used for a transport experiment.
A solution to be used was placed in a 37±1° C. water bath kettle to be pre-incubated for 30 minutes. The donor solution and the receiver solution were respectively added to corresponding sides of wells of cell plate (to an apical side and a basolateral side, 75 μL and 250 μL of samples were added respectively), and experiment of bidirectional transport was started. After the addition of the samples, the cell plate was placed in a 37±1° C., 5% CO2 incubator with saturated relative humidity to be incubated for 150 minutes.
The samples were all centrifuged at 3220 g for 10 minutes after being shaken in a vortex manner. A suitable volume of a supernatant was transferred to a sample analyzing plate. If analysis was not carried out immediately after the plate was sealed, the plate was stored at 2-8° C. The analysis was carried out through a method of LC/MS/MS.
The sample for test, fenoterol control, propranolol control, and digoxin were analyzed in a semiquantitative manner, and specific values of analytes to a peak area of the internal standard were taken as concentration of the controls.

The structures appear in SMILES notation.

T1 sequence (P14902 whole entry): as above

On to `O=S(=O)(O)NCCOc1nonc1/C(=N/O)Nc1ccc(F)c(Br)c1` [Compound 0148], for which the IC50 in data set [1] is 0.147 µM; in data set [2] it was 0.159 µM.
The corresponding values for `NS(=O)(=O)NCCOc1nonc1C(=NO)Nc1ccc(F)c(C(F)F)c1` [Compound 0151] are 0.149 µM and 0.0252 µM.
The corresponding values for `O=CNCCOc1nonc1/C(=N/O)Nc1ccc(F)c(Br)c1` [Compound 0153] are 0.153 µM and 0.0824 µM.
For `NS(=O)(=O)NCCSc1nonc1/C(=N/O)Nc1ccc(F)c(C(F)(F)F)c1` [Compound 0157] the same measures were 0.16 µM and 0.0134 µM.
With `OCCOc1nonc1/C(=N/O)Nc1ccc(F)c(Br)c1` [Compound 0177], the IC50 in data set [1] was found to be 0.279 µM; in data set [2], 0.0542 µM.
As for `NS(=O)(=O)N[C@H]1C[C@@H](Oc2nonc2/C(=N/O)Nc2ccc(F)c(Br)c2)C1` [Compound 0225], the IC50 turned out to be 0.274 µM in data set [1] and 0.0187 µM in data set [2].
For the compound `CCS(=O)(=O)NCCSc1nonc1/C(=N/O)Nc1ccc(F)c(Br)c1` [Compound 0228], the results for the IC50 in data set [1] and in data set [2] were 0.101 µM and 0.00397 µM, respectively. The Papp A→B at 150 min, 2 µM in data set [3] was found to be 6.78 ×10⁻⁶ cm/s. Moreover, the Papp B→A at 150 min, 2 µM in data set [3] is 10.5 ×10⁻⁶ cm/s.
In the case of `CS(=O)(=O)NCCSc1nonc1/C(=N/O)Nc1ccc(F)c(Br)c1` [Compound 0229], the IC50 in data set [1] worked out at 0.0801 µM; in data set [2], 0.0112 µM.
`CNC(=O)NCCSc1nonc1/C(=N/O)Nc1ccc(F)c(Br)c1` [Compound 0233]: the IC50 in data set [1] was found to be 0.109 µM; in data set [2] it was 0.0192 µM.
For `O=C(NCCSc1nonc1/C(=N/O)Nc1ccc(F)c(Br)c1)NC1CC1` [Compound 0234] the same measures were 0.077 µM and 0.00958 µM.
The corresponding values for `O=C(NCCSc1nonc1/C(=N/O)Nc1ccc(F)c(Br)c1)C1CC1` [Compound 0236] are 0.129 µM and 0.0554 µM.
The corresponding values for `CNC(=O)CSc1nonc1/C(=N/O)Nc1ccc(F)c(Br)c1` [Compound 0237] are 0.0423 µM and 0.00851 µM.
As to `CNC(=O)CCSc1nonc1/C(=N/O)Nc1ccc(F)c(Br)c1` [Compound 0238], the 50% inhibitory concentration (IC50) in data set [1] turned out to be 0.0854 µM; in data set [2] it was 0.0139 µM.
The corresponding values for `CNS(=O)(=O)NCCSc1nonc1/C(=N/O)Nc1ccc(F)c(Br)c1` [Compound 0240] are 0.128 µM and 0.0262 µM.
For `O=CNCCSc1nonc1/C(=N/O)Nc1ccc(F)c(Br)c1` [Compound 0245] the same measures were 0.0744 µM and 0.0148 µM.
Turning to `O=C(CSc1nonc1/C(=N/O)Nc1ccc(F)c(Br)c1)NC1CC1` [Compound 0247], the IC50 stood at 0.0957 µM in data set [1] and 0.0171 µM in data set [2].
For `N#CCC(=O)NCCSc1nonc1/C(=N/O)Nc1ccc(F)c(Br)c1` [Compound 0249], the values for the IC50 in data set [1] and in data set [2] were 0.164 µM and 0.0303 µM, respectively.
As for `COC(=O)NCCSc1nonc1/C(=N/O)Nc1ccc(F)c(Br)c1` [Compound 0250], the results for the IC50 in data set [1] and in data set [2] were 0.138 µM and 0.027 µM, respectively.
For `NC(=O)CSc1nonc1/C(=N/O)Nc1ccc(F)c(Br)c1` [Compound 0251] the same measures were 0.0443 µM and 0.00715 µM.
The corresponding values for `O=C(CSc1nonc1/C(=N/O)Nc1ccc(F)c(Br)c1)NO` [Compound 0260] are 0.0746 µM and 0.0315 µM.
For `NC(=O)CCSc1nonc1/C(=N/O)Nc1ccc(F)c(Br)c1` [Compound 0262] the same measures were 0.0896 µM and 0.0708 µM.
For the compound `NS(=O)(=O)NCCSc1nonc1/C(=N/O)Nc1ccc(F)c(I)c1` [Compound 0273], the IC50 in data set [1] was 0.144 µM; in data set [2] it was 0.0344 µM.
The corresponding values for `O=C(NCCSc1nonc1/C(=N/O)Nc1ccc(F)c(Br)c1)C(F)F` [Compound 0287] are 0.0694 µM and 0.0129 µM.
For `O=C(CO)NCCSc1nonc1/C(=N/O)Nc1ccc(F)c(Br)c1` [Compound 0293] the same measures were 0.0601 µM and 0.0295 µM.
The corresponding values for `NS(=O)(=O)NCCSc1nonc1/C(=N/O)Nc1cccc(I)c1` [Compound 0295] are 0.122 µM and 0.0472 µM.
For `NC(=O)NCCSc1nonc1/C(=N/O)Nc1cccc(I)c1` [Compound 0309], the IC50 is 0.0545 µM in data set [1] and 0.0235 µM in data set [2].
For `N#C/N=C(\N)NCCSc1nonc1/C(=N/O)Nc1ccc(F)c(Br)c1` [Compound 0310], the IC50 was determined as 0.0973 µM in data set [1] and 0.0128 µM in data set [2].
The corresponding values for `N=C(N)NCCSc1nonc1/C(=N/O)Nc1ccc(F)c(Br)c1` [Compound 0383] are 0.1 µM and 0.105 µM.
For `N=C(N)NC(=N)NCCSc1nonc1/C(=N/O)Nc1ccc(F)c(Br)c1` [Compound 0384] the same measures were 0.173 µM and 0.152 µM.

The record behind these values is US20190169140A1, “IDO1 INHIBITOR AND PREPARATION METHOD AND APPLICATION THEREOF” (SHANDONG LUYE PHARMACEUTICAL CO., LTD., priority 2016, published 2019).
